The results in this text go back to ChEMBL document CHEMBL1140271, “Synthesis and antibacterial activity of 5-methoxy- and 5-hydroxy-6-fluoro-1,8-naphthyridone-3-carboxylic acid derivatives” (Bioorg Med Chem Lett, 2005).

Test [1] concerns Haemophilus influenzae. Put plainly: Minimum inhibitory concentration against Haemophilus influenzae GYR 1435 gram-negative strain. The test is classed as functional.
The test system of test [2] is Streptococcus pneumoniae. Put plainly: Minimum inhibitory concentration against Streptococcus pneumoniae 7257 Quinolone-resistant strain. In kind it is functional.
Test [3] has as its system Streptococcus pneumoniae. Put plainly: Inhibitory concentration against Streptococcus pneumoniae translation. The test is classed as functional, organism-based.

Values after ≈ are worked out from the molar mass of the structure shown. Bounds are passed on as bounds.

For `NC1CCN(c2nc3ncc(C(=O)O)c(O)c3cc2F)C1` (centres undefined), the MIC in test [1] was 4 µg/mL (≈ 13.7 µM); in test [2], 32 µg/mL (≈ 109 µM). The same molecule returned a half-maximal inhibitory concentration (IC50) in test [3] of 7 µM.
For the molecule `O=C(O)c1cnc2nc(N3CCCC3)c(F)c(O)c2c1O`, the MIC in test [1] and in test [2] was 4 µg/mL (≈ 13.6 µM) each time. The IC50 in test [3] was determined as 51 µM.
On to `COc1c(F)c(N2CCCC2)nc2ncc(C(=O)O)c(O)c12`, for which the MIC in test [1] worked out at 64 µg/mL (≈ 208 µM); in test [2], 32 µg/mL (≈ 104 µM). The IC50 in test [3] stood at 32 µM.
`COc1c(F)c(N2CCC(N)C2)nc2ncc(C(=O)O)c(O)c12` (centres undefined): the MIC in test [1] and in test [2] was 64 µg/mL (≈ 199 µM) each time. The same molecule showed an IC50 in test [3] of 4 µM.
Take `O=C(O)c1cnc2nc(N3CCC3)c(F)c(O)c2c1O`: the MIC in test [1] and in test [2] was 64 µg/mL (≈ 229 µM) throughout. Also, in test [3], the IC50 came out at 200 µM.
With `COc1c(F)c(N2CCC2)nc2ncc(C(=O)O)c(O)c12`, the MIC in test [1] turned out to be 32 µg/mL (≈ 109 µM); in test [2], 8 µg/mL (≈ 27.3 µM). This molecule also had a 50% inhibitory concentration (IC50) in test [3] of 14 µM.
In the case of `O=C(O)c1cnc2nc(N3CCC3)c(F)cc2c1O`, the MIC was 1 µg/mL (≈ 3.8 µM) in test [1] and 4 µg/mL (≈ 15.2 µM) in test [2]. In test [3], the half-inhibitory concentration (IC50) turned out to be 5 µM.
In the case of `O=C(O)c1cnc2nc(N3CCCC3)c(F)cc2c1O`, the MIC stood at 1 µg/mL (≈ 3.61 µM) in test [1] and 4 µg/mL (≈ 14.4 µM) in test [2]. Moreover, the midpoint of inhibition in test [3], the IC50, lay at 10 µM.
In the same order, the values of `NC1CCN(c2nc3ncc(C(=O)O)c(O)c3c(O)c2F)C1` (centres undefined) are 32 µg/mL (≈ 104 µM), 64 µg/mL (≈ 208 µM) and 17 µM.
In the case of `C[C@H]1COc2c(N3CCN(C)CC3)c(F)cc3c(=O)c(C(=O)O)cn1c23.C[C@H]1COc2c(N3CCN(C)CC3)c(F)cc3c(=O)c(C(=O)O)cn1c23.O` [LEVOFLOXACIN], the MIC in test [1] was found to be 0.015 µg/mL. Moreover, the IC50 in test [3] is greater than 100 µM.
